From patent US7323469B2, “7H-pyrrolo[2,3-d]pyrimidine derivatives” (Novartis AG, priority 2001, dated 2008)

Row | Compound | melting point
1 | COc1ccc(Nc2ncnc3[nH]c(-c4ccc(CN5CCN(C)CC5)cc4)cc23)cn1 [Example 112, (6-Methoxy-pyridin-3-yl)-{6-[4-(4-methyl-piperazin-1-ylmethyl)-phenyl]-7H-pyrrolo[2,3-d]pyrimidin-4-yl}-amine] | 241 to 242 °C
2 | C[C@@H](Nc1ncnc2[nH]c(-c3ccc(CNC(=O)CCCN(C)C)cc3)cc12)c1ccccc1 [Example 56, 4-Dimethylamino-N-{4-[4-((R)-1-phenyl-ethyl-amino)-7H-pyrrolo[2,3-d]pyrimidin-6-yl]-benzyl}-butyramide] | 195 to 203 °C
3 | CCN1CCN(Cc2ccc(-c3cc4c(NCc5ccccc5Cl)ncnc4[nH]3)cc2)CC1 [Example 91, (2-Chloro-benzyl)-{6-[4-(4-ethyl-piperazin-1-ylmethyl)-phenyl]-7H-pyrrolo[2,3-d]pyrimidin-4-yl}-amine] | 255 to 256 °C
4 | CCN1CCN(CC(=O)NCc2ccc(-c3cc4c(Nc5ccc(F)c(Cl)c5)ncnc4[nH]3)cc2)CC1 [Example 47, N-{4-[4-(3-Chloro-4-fluoro-phenylamino)-7H-pyrrolo[2,3-d]pyrimidin-6-yl]-benzyl}-2-(4-ethyl-piperazin-1-yl)-acetamide] | 245 to 247 °C
5 | Cc1ccc(Nc2ncnc3[nH]c(-c4cccc(CN5CCN(C)CC5)c4)cc23)cc1O [Example 67, 2-Methyl-5-{6-[3-(4-methyl-piperazin-1-ylmethyl)-phenyl]-7H-pyrrolo[2,3-d]pyrimidin-4-ylamino}-phenol] | 256 to 258 °C
6 | C[C@@H](Nc1ncnc2[nH]c(-c3cccc(CN(C)C)c3)cc12)c1ccccc1 [Example 25, [6-(3-Dimethylaminomethyl-phenyl)-7H-pyrrolo[2,3-d]pyrimidin-4-yl]-((R)-1-phenyl-ethyl)-amine] | 108 to 110 °C
7 | CN(C)Cc1ccc(-c2cc3c(Nc4ccc(F)c(Cl)c4)ncnc3[nH]2)cc1 [Example 1, (3-Chloro-4-fluoro-phenyl)-[6-(4-dimethylaminomethyl-phenyl)-7H-pyrrolo[2,3-d]pyrimidin-4-yl]-amine] | 274 to 276 °C
8 | Fc1ccc(Nc2ncnc3[nH]c(-c4cccc(CN5CCCC5)c4)cc23)cc1Cl [Example 36, (3-Chloro-4-fluoro-phenyl)-[6-(3-pyrrolidin-1-ylmethyl-phenyl)-7H-pyrrolo[2,3-d]pyrimidin-4-yl]-amine] | 238 to 240 °C
9 | CCN1CCN(Cc2ccc(-c3cc4c(NCc5cc(Cl)ccc5Cl)ncnc4[nH]3)cc2)CC1 [Example 97, (2,5-Dichloro-benzyl)-{6-[4-(4-ethyl-piperazin-1-ylmethyl)-phenyl]-7H-pyrrolo[2,3-d]pyrimidin-4-yl}-amine] | 249 to 251 °C
10 | C[C@@H](Nc1ncnc2[nH]c(-c3ccc(CNC(=O)c4ccccn4)cc3)cc12)c1ccccc1 [Example 57, Pyridine-2-carboxylic acid 4-[4-((R)-1-phenyl-ethylamino)-7H-pyrrolo[2,3-d]pyrimidin-6-yl]-benzylamide] | 221 to 223 °C
11 | CN1CCN(CC(=O)NCc2ccc(-c3cc4c(Nc5ccc(F)c(Cl)c5)ncnc4[nH]3)cc2)CC1 [Example 50, N-{4-[4-(3-Chloro-4-fluoro-phenylamino)-7H-pyrrolo[2,3-d]pyrimidin-6-yl]-benzyl}-2-(4-methyl-piperazin-1-yl)-acetamide] | 246 to 249 °C
12 | CCN(CC)Cc1ccc(-c2cc3c(NCc4cc(Cl)ccc4Cl)ncnc3[nH]2)cc1 [Example 101, (2,5-Dichloro-benzyl)-[6-(4-diethylaminomethyl-phenyl)-7H-pyrrolo[2,3-d]pyrimidin-4-yl]-amine] | 255 to 257 °C
13 | C[C@@H](Nc1ncnc2[nH]c(-c3cccc(CN4CCCC4)c3)cc12)c1ccccc1 [Example 28, ((R)-1-Phenyl-ethyl)-[6-(3-pyrrolidin-1-ylmethyl-phenyl)-7H-pyrrolo[2,3-d]pyrimidin-4-yl]-amine] | 90 to 92 °C
14 | CN1CCN(CC(=O)NCc2cccc(-c3cc4c(Nc5ccc(F)c(Cl)c5)ncnc4[nH]3)c2)CC1 [Example 65, N-{3-[4-(3-Chloro-4-fluoro-phenylamino)-7H-pyrrolo[2,3-d]pyrimidin-6-yl]-benzyl}-2-(4-methyl-piperazin-1-yl)-acetamide] | 214 °C
15 | C[C@@H](Nc1ncnc2[nH]c(-c3cccc(CN4CCOCC4)c3)cc12)c1ccccc1 [Example 31, [6-(3-Morpholin-4-ylmethyl-phenyl)-7H-pyrrolo[2,3-d]pyrimidin-4-yl]-((R)-1-phenyl-ethyl)-amine] | 242 to 243 °C
16 | C[C@@H](Nc1ncnc2[nH]c(-c3ccc(CNC(C)(C)C)cc3)cc12)c1ccccc1 [Example 16d, {6-[4-(tert-Butylamino-methyl)-phenyl]-7H-pyrrolo[2,3-d]pyrimidin-4-yl}-((R)-1-phenyl-ethyl)-amine] | > 300 °C
17 | CN(C)Cc1ccc(-c2cc3c(Nc4cccc(Cl)c4)ncnc3[nH]2)cc1.Cl | 280 to 283 °C
18 | C[C@@H](Nc1ncnc2[nH]c(-c3ccc(CN4CCN(C)CC4)cc3)cc12)c1ccc(Cl)cc1 [Example 77, [(R)-1-(4-Chloro-phenyl)-ethyl]-{6-[4-(4-methyl-piperazin-1-ylmethyl)-phenyl]-7H-pyrrolo[2,3-d]pyrimidin-4-yl}-amine] | 232 to 233 °C

Row | Compound | melting point
19 | O=C(CN1CCCCC1)NCc1ccc(-c2cc3c(Nc4ccc(OCc5ccccc5)cc4)ncnc3[nH]2)cc1 [Example 53, N-{4-[4-(4-Benzyloxy-phenylamino)-7H-pyrrolo[2,3-d]pyrimidin-6-yl]-benzyl}-2-piperidin-1-yl-acetamide] | 246 to 248 °C
20 | Clc1cccc(CNc2ncnc3[nH]c(-c4ccc(CN5CCCC5)cc4)cc23)c1 [Example 88, (3-Chloro-benzyl)-[6-(4-pyrrolidin-1-ylmethyl-phenyl)-7H-pyrrolo[2,3-d]pyrimidin-4-yl]-amine] | 222 to 225 °C
21 | Clc1cccc(CNc2ncnc3[nH]c(-c4ccc(CN5CCCCC5)cc4)cc23)c1 [Example 85, (3-Chloro-benzyl)-[6-(4-piperidin-1-ylmethyl-phenyl)-7H-pyrrolo[2,3-d]pyrimidin-4-yl]-amine] | 234 to 235 °C
22 | CCN1CCN(Cc2ccc(-c3cc4c(Nc5ccc(OCc6ccccc6)cc5)ncnc4[nH]3)cc2)CC1 [Example 22, (4-Benzyloxy-phenyl)-{6-[4-(4-ethyl-piperazin-1-ylmethyl)-phenyl]-7H-pyrrolo[2,3-d]pyrimidin-4-yl}-amine] | 256 to 258 °C
23 | CN(C)Cc1ccc(-c2cc3c(NCc4cc(Cl)ccc4Cl)ncnc3[nH]2)cc1 [Example 98, (2,5-Dichloro-benzyl)-[6-(4-dimethylaminomethyl-phenyl)-7H-pyrrolo[2,3-d]pyrimidin-4-yl]-amine] | 254 to 257 °C
24 | C[C@@H](Nc1ncnc2[nH]c(-c3ccc(CN4CCNCC4)cc3)cc12)c1ccccc1 [Example 145, ((R)-1-Phenyl-ethyl)-[6-(4-piperazin-1-ylmethyl-phenyl)-7H-pyrrolo[2,3-d]pyrimidin-4-yl]-amine] | 240 to 242 °C
25 | CN1CCN(Cc2cccc(-c3cc4c(Nc5ccc(F)c(Cl)c5)ncnc4[nH]3)c2)CC1 [Example 37, (3-Chloro-4-fluoro-phenyl)-{6-[3-(4-methyl-piperazin-1-ylmethyl)-phenyl]-7H-pyrrolo[2,3-d]pyrimidin-4-yl}-amine] | 221 to 223 °C
26 | O=C(CCN1CCCCC1)NCc1ccc(-c2cc3c(Nc4ccc(F)c(Cl)c4)ncnc3[nH]2)cc1 [Example 61, N-{4-[4-(3-Chloro-4-fluoro-phenylamino)-7H-pyrrolo[2,3-d]pyrimidin-6-yl]-benzyl}-3-piperidin-1-yl-propionamide] | 230 to 235 °C
27 | CN(C)CC(=O)NCc1ccc(-c2cc3c(Nc4ccc(F)c(Cl)c4)ncnc3[nH]2)cc1 [Example 46, N-{4-[4-(3-Chloro-4-fluoro-phenylamino)-7H-pyrrolo[2,3-d]pyrimidin-6-yl]-benzyl}-2-dimethylamino-acetamide] | 278 to 282 °C
28 | COc1cc(CNc2ncnc3[nH]c(-c4ccc(CN5CCN(C)CC5)cc4)cc23)ccn1 [Example 125, (2-Methoxy-pyridin-4-ylmethyl)-{6-[4-(4-methyl-piperazin-1-ylmethyl)-phenyl]-7H-pyrrolo[2,3-d]pyrimidin-4-yl}-amine] | 211 to 212 °C
29 | O=C(NCc1ccc(-c2cc3c(Nc4ccc(F)c(Cl)c4)ncnc3[nH]2)cc1)c1ccccn1 [Example 59, Pyridine-2-carboxylic acid 4-[4-(3-chloro-4-fluoro-phenylamino)-7H-pyrrolo[2,3-d]pyrimidin-6-yl]-benzylamide] | 340 to 342 °C
30 | Clc1ccccc1CNc1ncnc2[nH]c(-c3ccc(CN4CCOCC4)cc3)cc12 [Example 93, (2-Chloro-benzyl)-[6-(4-morpholin-4-ylmethyl-phenyl)-7H-pyrrolo[2,3-d]pyrimidin-4-yl]-amine] | 276 to 279 °C
31 | Clc1ccccc1CNc1ncnc2[nH]c(-c3ccc(CN4CCCC4)cc3)cc12 [Example 95, (2-Chloro-benzyl)-[6-(4-pyrrolidin-1-ylmethyl-phenyl)-7H-pyrrolo[2,3-d]pyrimidin-4-yl]-amine] | 264 to 265 °C
32 | Cc1cccc(CNc2ncnc3[nH]c(-c4ccc(CN5CCCC5)cc4)cc23)c1 [Example 107h, (3-Methyl-benzyl)-[6-(4-pyrrolidin-1-ylmethyl-phenyl)-7H-pyrrolo[2,3-d]pyrimidin-4-yl]-amine] | 241 to 243 °C
33 | CCN1CCN(Cc2cccc(-c3cc4c(Nc5ccc(F)c(Cl)c5)ncnc4[nH]3)c2)CC1 [Example 35, (3-Chloro-4-fluoro-phenyl)-{6-[3-(4-ethyl-piperazin-1-ylmethyl)-phenyl]-7H-pyrrolo[2,3-d]pyrimidin-4-yl}-amine] | 238 to 240 °C
34 | CN(C)Cc1ccc(-c2cc3c(NCc4ccccc4Cl)ncnc3[nH]2)cc1 [Example 90, (2-Chloro-benzyl)-[6-(4-dimethylaminomethyl-phenyl)-7H-pyrrolo[2,3-d]pyrimidin-4-yl]-amine] | 256 to 258 °C
35 | CCN(CC)Cc1ccc(-c2cc3c(NCc4cccc(Cl)c4)ncnc3[nH]2)cc1 [Example 87, (3-Chloro-benzyl)-[6-(4-diethylaminomethyl-phenyl)-7H-pyrrolo[2,3-d]pyrimidin-4-yl]-amine] | 231 to 233 °C
